Among the data in patent publication US20120289501A1, “Benzene-fused 6-membered oxygen-containing heterocyclic derivatives of bicyclic heteroaryls” (NOVARTIS AG, priority 2009, published 2012) are IC50 values, retold here.

The structures appear in SMILES notation. Where only a bound is given, the exact number is not on record here.

The assay deals with IGF1R (Homo sapiens, UniProt P08069). Kind of assay: Cellular IGF-1R assay: inhibition of IGF1R phosphorylation in transduced Hek293 cells, capture ELISA (MSD). The class given is cell-based. Details: Hek293 cells transduced with the corresponding receptors; expressed in transfected cells; host or cells: Hek293 (Hek293-IGF1R). As to the method:
In this assay the activity of the compounds of the invention against Insulin-like growth factor I (IGF-1) induced autophosphorylation of the IGF-IR is determined. The assay is conducted as follows: Compound-mediated inhibition of IGF1R and INSR phosphorylation in Hek293 cells transduced with the corresponding receptors is assessed in a capture ELISA format using the MSD (Meso Scale Discovery) platform. Briefly, 30′000 cells washed and diluted in starvation medium (DMEM high glucose supplemented with 0.1% BSA) are seeded in 90 μL per well into 96-well plates pre-coated with poly-D-lysine (0.1 mg/mL in PBS/0). After 24 h incubation at 37° C. and 5% CO2, dose-response effects are determined with 3-fold serial compound dilutions, starting at 10 μM. The final vehicle concentration is 0.1% DMSO in all wells. Following pre-incubation with compounds for 1 h, receptor phosphorylation is triggered by a 10 min exposure to 1.0 ng/μL IGF for Hek293-IGF1R cells, and 5.0 ng/μL insulin for Hek293-InsR cells. Cell lysis is achieved by addition of 80 μL MSD lysis buffer per aspirated well, incubation on ice for 20 min, and a freeze-thaw cycle. Target phosphorylation is then assessed by transferring volumes corresponding to approx. 6 μg Hek293-IGF1R or 0.6 μg Hek293-InsR lysates to MSD assay plates pre-coated with total-IGF1R or total-InsR Abs, respectively. After incubation for 2 h at rt, wells are exposed for 1 hr to a rabbit monoclonal antibody (CST #3024, 1:1000) detecting pIGF1R(Tyr1135/1136) as well as pINSR(Tyr1150/1151). Immune complexes are detected by a SULFO-Tag™-coupled anti-rabbit IgG antibody in the presence of 150 μL MSD read-buffer. Light emission at 620 nm triggered by application of electric current is recorded on a MSD SectorImager 6000. Acquired raw data (mean Ru-ECL units) are processed in an Excel analysis template. The plate blank (MSD lysis buffer) is subtracted from all data points. The effect of a particular test compound concentration on receptor phosphorylation is expressed relative to the window defined by ligand-stimulated vs unstimulated control cells (set as 100%). IC50 values [nM] are determined using 4-parametric curve-fitting (XLfit software, V4.3.2). Alternatively, the assay can be conducted with a slightly different format; Compound-mediated inhibition of IGF-1R and InsR phosphorylation in HEK293 cells overexpressing the corresponding receptors were assessed by quantitative Western blot using an Odyssey infrared imager as readout.
Compound-mediated inhibition of IGF1R and INSR phosphorylation in Hek293 cells transduced with the corresponding receptors is assessed in a capture ELISA format using the MSD (Meso Scale Discovery) platform. Briefly, 30′000 cells washed and diluted in starvation medium (DMEM high glucose supplemented with 0.1% BSA) are seeded in 90 μL per well into 96-well plates pre-coated with poly-D-lysine (0.1 mg/mL in PBS/O). After 24 h incubation at 37° C. and 5% CO2, dose-response effects are determined with 3-fold serial compound dilutions, starting at 10 μM. The final vehicle concentration is 0.1% DMSO in all wells. Following pre-incubation with compounds for 1 h, receptor phosphorylation is triggered by a 10 min exposure to 1.0 ng/μL IGF for Hek293-IGF1R cells, and 5.0 ng/μL insulin for Hek293-InsR cells. Cell lysis is achieved by addition of 80 μL MSD lysis buffer per aspirated well, incubation on ice for 20 min, and a freeze-thaw cycle. Target phosphorylation is then assessed by transferring volumes corresponding to approx. 6 μg Hek293-IGF1R or 0.6 μg Hek293-lnsR lysates to MSD assay plates pre-coated with total-IGF1R or total-lnsR Abs, respectively. After incubation for 2 h at rt, wells are exposed for 1 hr to a rabbit monoclonal antibody (CST #3024, 1:1000) detecting pIGF1R(Tyr1135/1136) as well as pINSR(Tyr1150/1151). Immune complexes are detected by a SULFO-Tag™-coupled anti-rabbit IgG antibody in the presence of 150 μL MSD read-buffer. […]
(In general: An ELISA detects its analyte on a solid surface through an enzyme-linked reagent.)

Sequence of IGF1R (P08069 31-1367): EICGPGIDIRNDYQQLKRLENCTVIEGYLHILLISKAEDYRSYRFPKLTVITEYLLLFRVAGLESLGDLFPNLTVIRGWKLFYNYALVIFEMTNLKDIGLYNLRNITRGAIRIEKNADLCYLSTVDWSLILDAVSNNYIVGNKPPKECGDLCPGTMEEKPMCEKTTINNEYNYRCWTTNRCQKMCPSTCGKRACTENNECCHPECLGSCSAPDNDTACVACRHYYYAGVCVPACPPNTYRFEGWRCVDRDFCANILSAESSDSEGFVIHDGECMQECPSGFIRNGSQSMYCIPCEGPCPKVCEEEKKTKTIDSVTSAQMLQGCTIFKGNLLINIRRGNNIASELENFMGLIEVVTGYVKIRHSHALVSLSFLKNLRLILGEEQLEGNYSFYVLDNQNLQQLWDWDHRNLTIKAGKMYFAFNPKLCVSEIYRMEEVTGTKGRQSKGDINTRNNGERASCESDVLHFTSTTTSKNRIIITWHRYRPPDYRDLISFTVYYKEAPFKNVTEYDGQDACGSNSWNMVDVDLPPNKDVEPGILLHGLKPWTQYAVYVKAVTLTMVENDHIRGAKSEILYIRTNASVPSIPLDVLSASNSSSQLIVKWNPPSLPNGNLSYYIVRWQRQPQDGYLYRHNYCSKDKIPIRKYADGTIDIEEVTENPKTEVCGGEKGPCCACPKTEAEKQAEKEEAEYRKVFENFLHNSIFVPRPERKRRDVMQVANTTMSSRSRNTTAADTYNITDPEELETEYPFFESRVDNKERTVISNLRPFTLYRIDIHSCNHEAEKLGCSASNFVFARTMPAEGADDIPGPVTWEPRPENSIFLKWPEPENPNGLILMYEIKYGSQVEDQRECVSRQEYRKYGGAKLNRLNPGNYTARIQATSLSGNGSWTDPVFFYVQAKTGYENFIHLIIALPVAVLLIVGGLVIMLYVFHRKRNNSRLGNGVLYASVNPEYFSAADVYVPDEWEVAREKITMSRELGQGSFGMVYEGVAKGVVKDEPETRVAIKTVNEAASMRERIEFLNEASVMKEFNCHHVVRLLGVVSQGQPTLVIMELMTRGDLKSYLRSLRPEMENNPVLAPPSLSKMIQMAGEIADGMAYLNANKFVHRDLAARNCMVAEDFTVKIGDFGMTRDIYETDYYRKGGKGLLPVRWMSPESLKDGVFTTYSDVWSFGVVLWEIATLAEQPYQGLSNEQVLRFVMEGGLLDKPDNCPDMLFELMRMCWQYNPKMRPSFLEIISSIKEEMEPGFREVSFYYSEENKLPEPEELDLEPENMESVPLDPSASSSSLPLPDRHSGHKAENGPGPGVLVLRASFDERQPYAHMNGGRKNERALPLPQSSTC

As a reminder, the IC50 is the concentration needed to halve the response being measured. High values mean lower potency, low ones higher potency. With `Nc1ncnc2c1c(-c1ccc3c(c1)OC(C1CCCO1)CC3)cn2C1CC(CN2CCS(=O)(=O)CC2)C1` (single isomer, unassigned) [Example 30, (I)-7-[cis-3-(1,1-Dioxo-1-thiomorpholin-4-ylmethyl)-cyclobutyl]-5-[2-(tetrahydro-furan-2-yl)-chroman-7-yl]-7H-pyrrolo[2,3-d]pyrimidin-4-ylamine], the concentration for half-maximal inhibition (IC50) lay within 4 to 5 nM. To `Nc1ncnc2c1c(-c1ccc3c(c1)OC(C1CCCO1)CC3)cn2C1CC(CN2CCS(=O)(=O)CC2)C1` (single isomer, unassigned) [Example 31, (u)-7-[3-(1,1-Dioxo-1-thiomorpholin-4-ylmethyl)-cyclobutyl]-5-[2-(tetrahydro-furan-2-yl)-chroman-7-yl]-7H-pyrrolo[2,3-d]pyrimidin-4-ylamine] belongs 7 nM. To `Nc1ncnc2c1c(-c1ccc3c(c1)OC(C1CCCO1)CC3)cn2C1CC(O)(CO)C1` (single isomer, unassigned) [Example 32, (I)-(E)-3-{4-Amino-5-[2-(tetrahydro-furan-2-yl)-chroman-7-yl]-pyrrolo[2,3-d]pyrimidin-7-yl}-1-hydroxymethyl-cyclobutanol] belongs 183 nM. The value for `Nc1ncnc2c1c(-c1ccc3c(c1)OC(C1CCCO1)CC3)cn2C1CC(O)(CO)C1` (single isomer, unassigned) [Example 33, (u)-(E)-3-{4-amino-5-[2-(tetrahydro-furan-2-yl)-chroman-7-yl]-pyrrolo[2,3-d]pyrimidin-7-yl}-1-hydroxymethyl-cyclobutanol] was 395 nM.

In turn, `Nc1ncnc2c1c(-c1ccc3c(c1)OC(C1CCCO1)CC3)cn2C1CC(O)(CO)C1` (single isomer, unassigned) [Example 35] had a half-inhibitory concentration (IC50) of 55 nM. To `Nc1ncnc2c1c(-c1ccc3c(c1)OC(c1ccccc1)CC3)cn2C1CC(O)(CO)C1` (single isomer, unassigned) [Example 41, (Z)-3-K-Amino-5-(2-phenyl-chroman-7-yl)-pyrrolo[2,3-d]pyrimidin-7-yl]-1-hydroxymethyl-cyclobutanol] belongs 44 to 143 nM. To `Nc1ncnc2c1c(-c1ccc3c(c1)OC(c1ccccc1)CC3)cn2C1CC(O)(CO)C1` (single isomer, unassigned) [Example 42, (Z)-3-K-Amino-5-(2-phenyl-chroman-7-yl)-pyrrolo[2,3-d]pyrimidin-7-yl]-1-hydroxymethyl-cyclobutanol] belongs 272 to 338 nM. The value for `Nc1ncnc2c1c(-c1ccc3c(c1)O[C@H](c1ccccc1)CC3)cn2[C@H]1C[C@@H](CO)C1` [Example 11, {cis-3-[4-Amino-5-((S)-2-phenyl-chroman-7-yl)-pyrrolo[2,3-d]pyrimidin-7-yl]-cyclobutyl}-methanol] was 19 nM; that for `Nc1ncnc2c1c(-c1ccc3c(c1)O[C@@H](c1ccccc1)CC3)cn2[C@H]1C[C@@H](CO)C1` [Example 12, {cis-3-[4-Amino-5-((R)-2-phenyl-chroman-7-yl)-pyrrolo[2,3-d]pyrimidin-7-yl]-cyclobutyl}-methanol] was 55 nM.

As for `CC1(O)CC(c2nc(-c3ccc4c(c3)O[C@@H](c3ccccc3)CC4)c3c(N)nccn23)C1` (stereo partly drawn) [Example 19, (R,S)—(Z)-3-[8-Amino-1-(2-phenyl-chroman-7-yl)-imidazo[1,5-a]pyrazin-3-yl]-1-methylcyclobutanol], half-maximal inhibition (IC50) required 158 nM. `Nc1ncnc2c1c(-c1ccc3c(c1)OC(c1ccccc1)=CC3)cn2[C@H]1C[C@@H](CN2CCS(=O)(=O)CC2)C1` [Example 20, 7-[cis-3-(1,1-Dioxo-1-thiomorpholin-4-ylmethyl)-cyclobutyl]-5-(2-phenyl-4H-chromen-7-yl)-7H-pyrrolo[2,3-d]pyrimidin-4-ylamine] came in with an IC50 of 179 nM. In turn, `Nc1ncnc2c1c(-c1ccc3c(c1)O[C@@H](c1ccccc1)CC3)cn2[C@H]1C[C@@H](CN2CCS(=O)(=O)CC2)C1` [Example 24, (R)-7-[cis-3-(1,1-Dioxo-thiomorpholin-4-ylmethyl)-cyclobutyl]-5-(2-phenyl-chroman-7-yl)-7H-pyrrolo[2,3-d]pyrimidin-4-ylamine] registered an IC50 of 8 nM.

Molecule `Nc1ncnc2c1c(-c1ccc3c(c1)O[C@H](c1ccccc1)CC3)cn2[C@H]1C[C@@H](CN2CCS(=O)(=O)CC2)C1` [Example 25, (S)-7-[cis-3-(1,1-dioxo-thiomorpholin-4-ylmethyl)-cyclobutyl]-5-(2-phenyl-chroman-7-yl)-7H-pyrrolo[2,3-d]pyrimidin-4-ylamine] showed a half-maximal inhibitory concentration (IC50) of 9 nM. The value for `Nc1ncnc2c1c(-c1ccc3c(c1)OC(c1ccccc1)CC3)cn2C1CC(CN2CCC(O)CC2)C1` (stereo not drawn) [Example 37, 1-{3-[4-Amino-5-(2-phenyl-chroman-7-yl)-pyrrolo[2,3-d]pyrimidin-7-yl]-cyclobutylmethyl}-piperidin-4-ol] was 46 nM. The value for `Nc1ncnc2c1c(-c1ccc3c(c1)OC(c1ccccc1)CC3)cn2[C@H]1C[C@@]2(COC(=O)O2)C1` (stereo partly drawn) [Example 43, (E)-2-[4-Amino-5-(2-phenyl-chroman-7-yl)-pyrrolo[2,3-d]pyrimidin-7-yl]-5,7-dioxa-spiro[3.4]octan-6-one] was 76 nM; that for `Nc1ncnc2c1c(-c1ccc3c(c1)OC(c1ccccc1)CC3)cn2[C@H]1C[C@@]2(CNC(=O)O2)C1` (stereo partly drawn) [Example 44, (E)-2-[4-Amino-5-(2-phenyl-chroman-7-yl)-pyrrolo[2,3-d]pyrimidin-7-yl]-5-oxa-7-aza-spiro[3.4]octan-6-one] was 16 nM; that for `Nc1ncnc2c1c(-c1ccc3c(c1)OC(c1ccccc1)CC3)cn2[C@H]1C[C@@](O)(CN2CCS(=O)(=O)CC2)C1` (stereo partly drawn) [Example 45, (E)-3-[4-Amino-5-(2-phenyl-chroman-7-yl)-pyrrolo[2,3-d]pyrimidin-7-yl]-1-(1,1-dioxothiomorpholin-4-ylmethyl)-cyclobutanol] was less than 5 nM. Turning to `CN1CCN(CC2CC(n3cc(-c4ccc5c(c4)OC(c4ccccc4)CC5)c4c(N)ncnc43)C2)CC1=O` (stereo not drawn) [Example 46, 4-{3-[4-Amino-5-(2-phenyl-chroman-7-yl)-pyrrolo[2,3-d]pyrimidin-7-yl]-cyclobutylmethyl}-1-methyl-piperazin-2-one], half-maximal inhibition (IC50) required 49 nM. The molecule `Nc1ncnc2c1c(-c1ccc3c(c1)OC(c1ccccc1)CC3)cn2[C@H]1C[C@@](O)(Cn2cnnc2)C1` (stereo partly drawn) [Example 47, (E)-3-[4-Amino-5-(2-phenyl-chroman-7-yl)-pyrrolo[2,3-d]pyrimidin-7-yl]-1-[1,2,4]triazol-4-ylmethylcyclobutanol] returned an IC50 of 525 nM. Against the preceding molecule, the IC50 is about 11-fold higher. To `Nc1ncnc2c1c(-c1ccc3c(c1)OC1(CCCCC1)CC3)cn2[C@H]1C[C@@H](CN2CCS(=O)(=O)CC2)C1` [Example 53, 7-(cis-3-(1,1-dioxo-thiomorpholin-4-ylmethyl)cyclobutyl)-5-(spiro[chroman-2,1′-cyclohexane]-7-yl)-7H-pyrrolo[2,3-d]pyrimidin-4-amine] belongs 202 nM. To `Nc1ncnc2c1c(-c1ccc3c(c1)OC(c1ccccn1)CC3)cn2C1CC(CN2CC3CC2CS3(=O)=O)C1` [Example 62, 7-[cis-3-((S,S)-2,2-Dioxo-2λ6-thia-5-aza-bicyclo[2,2,1]kept-5-ylmethyl)-cyclobutyl]-5-(2-pyridin-2-yl-chroman-7-yl)-7H-pyrrolo[2,3-d]pyrimidin-4-ylamine] belongs 69 nM.
